Entries after “also recorded” stand apart in the source; their conditions may differ.
Columns and labels:
[1] = Complete blood count and serum iron parameters in wild-type mice with chelator treatment; format: in vivo; settings: iron chelators for 3 weeks, n = 5, mean±SEM
Procedure: (§1) To test the use of these iron chelators in the setting of I/R, mice were pretreated for a week with these chelators and then subjected to I/R or sham operation. Chelation was continued for two weeks after the operation. […] To rule out any changes of serum iron hematopoiesis that can account for the cardiac functional difference, we performed complete blood counts and measured serum iron parameters in wild-type mice treated with iron chelators for 3 weeks.
(§2) Mice were treated with 80 mg/kg BPD (Sigma) in normal saline solution daily or 50 mg/kg DFO (Sigma) in normal saline every other day via intraperitoneal injection. The dose of BPD was chosen based on its ability to modulate cardiac mitochondrial iron, and the dose of DFO was chosen according to previously published studies (Ichikawa et al., 2014). BPD was prepared as a 400 mg/ml stock solution in ethanol and diluted 1:100 in normal saline to working concentration. DFO was prepared as a 250 mg/ml stock in water and diluted 1:100 in normal saline to working concentration.

H9c2 cardiomyoblasts = experiment: Mitochondrial labile (chelatable) iron by RPA fluorescence in H9c2 cells; format: cell-based, rat
Procedure: (§3) H9c2 cardiomyoblasts were cultured in DMEM (ATCC) supplemented with 10% FBS (Thermo) and Penicillin/Streptomycin (Cellgro). HEK293T cells were cultured in MEM (Cellgro) supplemented with 10% FBS, sodium pyruvate (Cellgro) and Penicillin/Streptomycin. Unless otherwise specified, cells were treated with 200 μM of DFO or 100 μM of BPD for two hours when indicated prior to addition of 600 μM of H2O2 when indicated for 6 hours. RNA isolation and qRT-PCR RNA was isolated using RNA-STAT60 (Tel-Test) according to the manufacturer's instructions, and subjected to DNAse I (Ambion) digestion to remove residual DNA. Purified RNA was then reverse transcribed with Random Hexamer and Oligo dT(16) (Applied Biosystems) and amplified on a 7500 Fast Real-Time PCR system using Fast SYBR Green PCR Master Mix (Applied Biosystems). mRNA levels were calculated based on the difference of threshold Ct values in target gene and average Ct values of 18s, Actb, B2m, and Hprt in the same sample.
Tissue iron was measured colorimetrically by the formation of a complex with bathophenanthroline disulfonate or ferene-S as described previously (Ichikawa et al., 2012; Khechaduri et al., 2013). […] Quantitative measurement of labile iron was done according to previously described methods (Cabantchik et al., 1996; Petrat et al., 2002b). […]

H9c2 cells [2] = experiment: Cytosolic and nuclear iron in H9c2 cells preloaded with radioactive 55Fe; format: cell-based, rat; settings: H9c2 cells preloaded with 55Fe
Procedure: as §3
For nuclear and cytosolic iron, cells were loaded with 280 nM of ^55Fe-NTA. Excess ^55Fe-NTA was washed off with cold PBS containing 200 μM DFO prior to chelator treatment. The nuclear and cytosolic fractions were isolated using NE-PER Nuclear and Cytoplasmic Extraction Reagents (Pierce) and the radioactivity was quantified with liquid scintillation.

H9c2 cells [3] = experiment: H2O2-induced cell death in H9c2 cells; format: cell-based, rat; settings: chelator pretreatment, then H2O2
Procedure: as §3
For in vitro studies, cells were resuspended in 1× Annexin V buffer (BD) and then stained with Alexa Fluor 350 conjugated Annexin V (Life Technology) and propidium iodide (Sigma) according to the manufacturer's instructions and analyzed on a LSRII flow cytometer (BD).

wild-type mice = experiment: Cardiac mitochondrial, cytosolic and nuclear non-heme iron in wild-type mice treated with iron chelator; format: in vivo; settings: wild-type mice at baseline, one-week regimen, BPD 80 mg/kg per day, DFO 50 mg/kg every other day
Procedure: Mice were treated with 80 mg/kg BPD (Sigma) in normal saline solution daily or 50 mg/kg DFO (Sigma) in normal saline every other day via intraperitoneal injection. The dose of BPD was chosen based on its ability to modulate cardiac mitochondrial iron, and the dose of DFO was chosen according to previously published studies (Ichikawa et al., 2014). BPD was prepared as a 400 mg/ml stock solution in ethanol and diluted 1:100 in normal saline to working concentration. DFO was prepared as a 250 mg/ml stock in water and diluted 1:100 in normal saline to working concentration. […]
Tissue iron was measured colorimetrically by the formation of a complex with bathophenanthroline disulfonate or ferene-S as described previously (Ichikawa et al., 2012; Khechaduri et al., 2013). […] Quantitative measurement of labile iron was done according to previously described methods (Cabantchik et al., 1996; Petrat et al., 2002b). […] Fluorescence intensity was measured using Gemini XS plate reader (Molecular Device) with following excitation emission setting: ex/em 490 nm/520 nm for mitoTracker Green and calcein, 564 nm/601 nm for RPA, and 350 nm/461 nm for Hoechst 33342. After initial measurement, 2 mM of PIH (Abcam) was added to each well and fluorescence signal was measured again. […]

[4] = system: wild-type mice subjected to I/R; experiment: Ischemia/reperfusion (I/R) injury in chelator-pretreated wild-type mice; format: in vivo
Procedure: as §1, §2
The procedure was performed as described previously (Wu et al., 2011).
(§4) Parasternal short- and long-axis views of the heart were obtained using a Vevo 770 high-resolution imaging system with a 30 MHz scan head. 2D and M-mode images were obtained and analyzed. Ejection fraction was calculated from M mode image using Teichholtz equation, and fractional shortening was directly calculated from end-systolic and end-diastolic chamber size from M-mode images.
At the time of tissue harvest, heart was excised and rinsed in phosphate buffered saline to remove excess blood on tissue and in ventricles. Hearts were then submerged into OTC compound and frozen in liquid nitrogen. For hearts with I/R injury, sections were collected 500 μm below suture line to capture the injured region. Sections were stained with hematoxylin and eosin for evaluation of general cardiac morphology and tissue organization. Masson Trichrome staining were used to visualize cardiac fibrosis. Fibrosis was quantified from low power microscope images by dividing the arc length of fibrotic scar to the circumference of left ventricle.
H9c2 cardiomyoblasts were cultured in DMEM (ATCC) supplemented with 10% FBS (Thermo) and Penicillin/Streptomycin (Cellgro). HEK293T cells were cultured in MEM (Cellgro) supplemented with 10% FBS, sodium pyruvate (Cellgro) and Penicillin/Streptomycin. […] Purified RNA was then reverse transcribed with Random Hexamer and Oligo dT(16) (Applied Biosystems) and amplified on a 7500 Fast Real-Time PCR system using Fast SYBR Green PCR Master Mix (Applied Biosystems). mRNA levels were calculated based on the difference of threshold Ct values in target gene and average Ct values of 18s, Actb, B2m, and Hprt in the same sample.

[5] = system: cardiac-specific ABCB8 knockout mice; experiment: Spontaneous cardiomyopathy in cardiac-specific ABCB8 knockout mice; format: in vivo
Description: We next took a loss-of-function approach, and studied whether a decrease in mitochondrial iron in cardiac-specific ABCB8 knockout mice, a model of spontaneous cardiomyopathy with mitochondrial iron overload (Ichikawa et al., 2012), protects against cardiac tissue damage. […] Mitochondrial iron in ABCB8 flox/flox (LoxP sequence flanking exon one of both alleles of ABCB8) mice with or without the αMHC-MER-Cre-MER transgene was modulated with BPD or vehicle control for one week before the induction of ABCB8 deletion with tamoxifen. BPD treatment continued until four weeks after the completion of tamoxifen treatment, at which point mitochondrial iron and cardiac function were measured. The effectiveness of Cre-mediated gene excision was confirmed at the protein level (FIG. 15). […] These findings indicate that prevention of mitochondrial iron accumulation through a pharmacological approach delays the development of cardiomyopathy in an animal model of mitochondrial iron accumulation.
Cardiomyocyte-specific ABCB8 transgenic mice were generated as described previously (Ichikawa et al., 2014) and backcrossed for at least 8 generations. Mice with both alleles of ABCB8 floxed (ABCB8f/f) were crossed to α-MHC MER-Cre-MER mice, and the first generation is back-crossed with ABCB8f/f mice to generate ABCB8f/f mice with or without α-MHC MER-Cre-MER transgene. Tamoxifen-induced Cre translocation and deletion of ABCB8 in the heart was achieved using a previously described protocol (Ichikawa et al., 2012). All animal studies were approved by the Institutional Animal Care and Use Committee at Northwestern University and were performed in accordance with guidelines from the National Institutes of Health.
as §2, §4
Tissue iron was measured colorimetrically by the formation of a complex with bathophenanthroline disulfonate or ferene-S as described previously (Ichikawa et al., 2012; Khechaduri et al., 2013). For qualitative measurement of mitochondrial labile iron, cells were stained with Rhodamine B-[1,10-phenanthrolin-5-yl)-aminocarbonyl]benzyl ester (RPA) (Squarix) and mitoTracker Green (Invitrogen). Images were obtained on a Zeiss AxioObserver.Z1 microscope. Quantitative measurement of labile iron was done according to previously described methods (Cabantchik et al., 1996; Petrat et al., 2002b). Briefly, cells were stained with RPA and mitoTracker Green for mitochondrial labile iron measurement and calcein (Invitrogen) and Hoechst 33342 (Invitrogen) for cytosolic labile iron measurement. Fluorescence intensity was measured using Gemini XS plate reader (Molecular Device) with following excitation emission setting: ex/em 490 nm/520 nm for mitoTracker Green and calcein, 564 nm/601 nm for RPA, and 350 nm/461 nm for Hoechst 33342. After initial measurement, 2 mM of PIH (Abcam) was added to each well and fluorescence signal was measured again. […]

H9c2 cells [6] = experiment: Mitochondrial ROS (mitoSox) in H9c2 cells after hydrogen peroxide treatment; format: cell-based, rat; settings: chelator pretreatment
Procedure: as §3
Mitochondrial ROS levels in intact cells were quantified using MitoSox Red (Life Technologies). Briefly, cells were loaded with MitoSox to stain for mitochondrial ROS and Hoechst 33342 for nuclei counter stain. Images were obtained on a Zeiss AxioObserver.Z1 microscope and analyzed with ImageJ software (NIH). MitoSox signal in the nuclei was subtracted to exclude localization of the dye to the nuclei.

H9c2 cells [7] = experiment: Mitochondrial membrane potential (TMRE) in H9c2 cells; format: cell-based, rat; settings: H2O2
Procedure: as §3
Cells were stained with 5 nM of TMRE (Life Technology) and counter stained with Hoechst 33342. Images were obtained on a Zeiss AxioObserver.Z1 microscope and analyzed with ImageJ software (NIH).

[8] = system: mitochondrial aconitase, complex I, II and IV; experiment: Mitochondrial enzyme and complex activities in H9c2 cells; format: cell-based, rat; settings: chelator pre-treatment, then H2O2
Procedure: as §3
Mitochondria were isolated from cells as described above. Mitochondrial complex I, II and IV activity was measured as described previously (Spinazzi et al., 2012). Aconitase activity was measured using Aconitase Activity Microplate Assay Kit (Abcam). Citrate synthase activity was measured from the same sample using Citrate Synthase Activity Kit (BioVision) and was used to normalize the mitochondrial complex activity.

[9] = cited from earlier work

Structure (SMILES)	Hematocrit [1]	Hemoglobin [1]	Iron Saturation [1]	MCH [1]	MCHC [1]	MCV [1]	Platelet [1]	RBC [1]	RDW [1]	Serum Iron [1]	Total Iron Binding Capacity [1]	Unsaturated Iron Binding Capacity [1]	WBC [1]	log P [9]	other results
c1ccc(-c2ccccn2)nc1 [BPD, 2,2′-bipyridyl]	47.53 ± 1.84%	13.12 ± 0.30 g/dL	15.25 ± 0.81 %	12.38 ± 0.53 pg	26.34 ± 1.21 g/dL	47.02 ± 0.36 fL	1007 ± 236.72 10^3/μL	10.7 ± 0.62 10^6/μL	17 ± 0.41%	44.40 ± 2.24 µg/dL	291.42 ± 4.63 µg/dL	247.02 ± 4.93 µg/dL	5.70 ± 0.40 10^3/μL	1.5	increase in mitochondrial labile iron after H2O2 treatment (H9c2 cardiomyoblasts; chelator pretreatment, then 600 μM H2O2 for 6 hours): attenuated; chelatable / labile mitochondrial iron (H9c2 cardiomyoblasts; two-hour pretreatment, 200 μM DFO or 100 μM BPD, no H2O2): decreased mitochondrial labile iron; also recorded: significantly reduced chelatable mitochondrial iron; also recorded: significantly lowered chelatable mitochondrial iron; cytosolic iron (H9c2 cells [2]): significant decreases; nuclear iron (H9c2 cells [2]): significant decreases; H2O2-induced cell death (H9c2 cells [3]): significantly reversed H2O2-induced cell death; also recorded: protected cells against H2O2 induced cell death; cardiac mitochondrial iron (wild-type mice): decreased cardiac mitochondrial iron; also recorded: decreased baseline mitochondrial iron; also recorded: lower mitochondrial iron; cardiac remodeling (tissue fibrosis) after I/R ([4]; mice pretreated for a week, H&E and Masson Trichrome staining): less cardiac remodeling compared to either vehicle- or DFO-treated mice; cardiac function after I/R / protection against I/R injury ([4]; mice pretreated for a week, chelation continued for two weeks after operation): significantly preserved cardiac function after I/R; also recorded: protected mice against I/R injury; expression of Nppa, Nppb and Myh7 after I/R ([4]; mice pretreated for a week, subjected to I/R): attenuated the expression of Nppa, Nppb and Myh7; ROS production after I/R ([4]; mice pretreated with chelator): reduced ROS production; cardiac function in ABCB8 knockout mice ([5]; BPD from 1 week before deletion until 6 weeks after deletion, read at 6 weeks after deletion): preserved cardiac function; mitochondrial iron accumulation in ABCB8 KO mice ([5]; Cre+ (KO) mice, BPD from one week before tamoxifen until four weeks after tamoxifen): prevented the development of iron accumulation; mitochondrial iron in Cre- (WT) mice ([5]; Cre- (WT) mice, same BPD regimen): resulted in a decrease in mitochondrial iron; cardiotoxicity of the treatment itself ([5]; WT mice, same BPD regimen): not cardiotoxic; lipid peroxidation products in ABCB8 KO mice ([5]; chelator-treated ABCB8 KO mice): attenuated the increase; cardiac function (ejection fraction, fractional shortening) in ABCB8 KO mice ([5]; four weeks after completion of tamoxifen treatment): preserved cardiac function; expression of Nppa, Nppb and Myh7 in ABCB8 KO mice ([5]; four weeks after tamoxifen): attenuated expression of Nppa, Nppb and Myh7; increase in mitochondrial ROS after hydrogen peroxide treatment (mitoSox) (H9c2 cells [6]): significantly attenuated; mitochondrial membrane potential after oxidative stress (H9c2 cells [7]): prevented the significant decrease of mitochondrial membrane potential after oxidative stress; activities of mitochondrial aconitase, complex I, II and IV after H2O2 treatment [8]: protected the activities of mitochondrial aconitase, complex I, II and IV after H2O2 treatment
CC(=O)N(O)CCCCCNC(=O)CCC(=O)N(O)CCCCCNC(=O)CCC(=O)N(O)CCCCCN [DFO, deferoxamine]	47.02 ± 2.25%	12.96 ± 0.53 g/dL	18.66 ± 1.68 %	13.28 ± 0.12 pg	27.62 ± 0.32 g/dL	48.1 ± 0.31 fL	711.6 ± 139.86 10^3/μL	9.77 ± 0.43 10^6/μL	17 ± 0.32%	53.37 ± 6.63 µg/dL	281.21 ± 12.76 µg/dL	227.85 ± 7.71 µg/dL	6.62 ± 0.85 10^3/μL	−0.614	–

From patent US10258612B2, “Mitochondrial lipid permeable iron chelators for treating and preventing ischemia/reperfusion (I/R) injury in the heart following an ischemic event” (Northwestern University, priority 2015, dated 2019)
